In ChEMBL document CHEMBL5143508, “Design, synthesis and biological evaluation of novel o-aminobenzamide derivatives as potential anti-gastric cancer agents in vitro and in vivo” (Eur J Med Chem, 2022):
Active and inactive are the calls of the source. The rule behind the calls is not given here.

How the values were obtained:
HGC-27 [1] = assay: Induction of morphological changes in human HGC-27 cells assessed as cytomembrane foaming incubated for 36 hrs by Giemsa staining based microscopic analysis; assay type: functional, cell-based; settings: dose 0.1-8 µM
HGC-27 [2] = assay: Induction of cell cycle arrest in human HGC-27 cells assessed as downregulation of CDK2 expression incubated for 48 hrs by Western blot analysis; assay type: functional, cell-based; settings: dose 0.1-8 µM
HGC-27 [3] = assay: Inhibition of cell migration in human HGC-27 cells measured after 24 hrs by wound healing assay; assay type: functional, cell-based; settings: dose 0.05-2 µM, DDE = dose-dependent effect
HGC-27 [4] = assay: Induction of apoptosis in human HGC-27 cells assessed as viable cells at 0.5 uM incubated for 48 hrs by annexin V FITC/propidium iodide staining based flow cytometry (reference value: 93.0 %); assay type: functional; settings: read-out: Activity
MGC-803 [5] = assay: Inhibition of cell migration in human MGC-803 cells measured after 24 hrs by wound healing assay; assay type: functional, cell-based; settings: dose 1.25-10 µM, DDE = dose-dependent effect
[6] = AUC (0 to t) in Sprague-Dawley rat at 100 mg/kg, po measured up to 24 hrs by LC-MS/MS analysis; assay type: ADME, organism-based; parameters: dose 100 mg/kg, time < 24 hrs, route po; settings: in vivo
HGC-27 [7] = assay: Induction of apoptosis in human HGC-27 cells assessed as reduction in caspase-3 level incubated for 48 hrs by Western blot analysis; assay type: functional, cell-based; settings: dose 0.1-8 µM, DDE = dose-dependent effect
HGC-27 [8] = assay: Induction of apoptosis in human HGC-27 cells assessed as necrotic cells at 2 uM incubated for 48 hrs by annexin V FITC/propidium iodide staining based flow cytometry (reference value: 1.24 %); assay type: functional
MGC-803 [9] = assay: Anti-invasion activity against human MGC-803 cells assessed as inhibition of invasion incubated for 24 hrs by transwell invasion assay; assay type: functional, cell-based; settings: dose 1.25-10 µM, DDE = dose-dependent effect
HGC-27 [10] = assay: Induction of apoptosis in human HGC-27 cells assessed as early apoptotic cells at 8 uM incubated for 48 hrs by annexin V FITC/propidium iodide staining based flow cytometry (reference value: 0.66 %); assay type: functional
MGC-803 [11] = assay: Induction of morphological changes in human MGC-803 cells assessed as chromatin condensation incubated for 36 hrs by Giemsa staining based microscopic analysis; assay type: functional, cell-based; settings: dose 2.5-20 µM
HGC-27 [12] = assay: Induction of cell cycle arrest in human HGC-27 cells assessed as downregulation of CDK1 expression incubated for 48 hrs by Western blot analysis; assay type: functional, cell-based; settings: dose 0.1-8 µM
MGC-803 [13] = assay: Induction of apoptosis in human MGC-803 cells assessed as viable cells at 10 uM incubated for 48 hrs by annexin V FITC/propidium iodide staining based flow cytometry (reference value: 94.4 %); assay type: functional; settings: read-out: Activity
MGC-803 [14] = assay: Induction of apoptosis in human MGC-803 cells assessed as necrotic cells at 5 uM incubated for 48 hrs by annexin V FITC/propidium iodide staining based flow cytometry (reference value: 1.06 %); assay type: functional
MGC-803 [15] = assay: Induction of apoptosis in human MGC-803 cells assessed as viable cells at 5 uM incubated for 48 hrs by annexin V FITC/propidium iodide staining based flow cytometry (reference value: 94.4 %); assay type: functional; settings: read-out: Activity
[16] = Half life in Sprague-Dawley rat at 100 mg/kg, po measured up to 24 hrs by LC-MS/MS analysis; assay type: ADME, organism-based; settings: in vivo
MGC-803 [17] = assay: Induction of apoptosis in human MGC-803 cells assessed as late apoptotic cells at 5 uM incubated for 48 hrs by annexin V FITC/propidium iodide staining based flow cytometry (reference value: 4.07 %); assay type: functional
MGC-803 [18] = assay: Induction of apoptosis in human MGC-803 cells assessed as early apoptotic cells at 5 uM incubated for 48 hrs by annexin V FITC/propidium iodide staining based flow cytometry (reference value: 0.42 %); assay type: functional
MGC-803 [19] = assay: Induction of apoptosis in human MGC-803 cells assessed as necrotic cells at 10 uM incubated for 48 hrs by annexin V FITC/propidium iodide staining based flow cytometry (reference value: 1.06 %); assay type: functional
HGC-27 [20] = assay: Induction of morphological changes in human HGC-27 cells assessed as chromatin condensation incubated for 36 hrs by Giemsa staining based microscopic analysis; assay type: functional, cell-based; settings: dose 0.1-8 µM
HGC-27 [21] = assay: Induction of apoptosis in human HGC-27 cells assessed as reduction in caspase-9 level incubated for 48 hrs by Western blot analysis; assay type: functional, cell-based; settings: dose 0.1-8 µM, DDE = dose-dependent effect
HGC-27 [22] = assay: Induction of apoptosis in human HGC-27 cells assessed as early apoptotic cells at 0.5 uM incubated for 48 hrs by annexin V FITC/propidium iodide staining based flow cytometry (reference value: 0.66 %); assay type: functional
[23] = Tmax in Sprague-Dawley rat at 100 mg/kg, po measured up to 24 hrs by LC-MS/MS analysis; assay type: ADME, organism-based; settings: in vivo
HGC-27 [24] = assay: Induction of apoptosis in human HGC-27 cells assessed as reduction in Bcl-2 level incubated for 48 hrs by Western blot analysis; assay type: functional, cell-based; settings: dose 0.1-8 µM, DDE = dose-dependent effect
HGC-27 [25] = assay: Anti-invasion activity against human HGC-27 cells assessed as inhibition of invasion incubated for 24 hrs by transwell invasion assay; assay type: functional, cell-based; settings: dose 0.05-2 µM, DDE = dose-dependent effect
[26] = MRT (0 to t) in Sprague-Dawley rat at 100 mg/kg, po measured up to 24 hrs by LC-MS/MS analysis; assay type: ADME, organism-based; settings: in vivo
MGC-803 [27] = assay: Induction of apoptosis in human MGC-803 cells assessed as late apoptotic cells at 10 uM incubated for 48 hrs by annexin V FITC/propidium iodide staining based flow cytometry (reference value: 4.07 %); assay type: functional
MGC-803 [28] = assay: Induction of apoptosis in human MGC-803 cells assessed as early apoptotic cells at 10 uM incubated for 48 hrs by annexin V FITC/propidium iodide staining based flow cytometry (reference value: 0.42 %); assay type: functional
HGC-27 [29] = assay: Induction of cell cycle arrest in human HGC-27 cells assessed as downregulation of cyclin A expression incubated for 48 hrs by Western blot analysis; assay type: functional, cell-based; settings: dose 0.1-8 µM
HGC-27 [30] = assay: Antiproliferative activity against human HGC-27 cells measured after 24 hrs by […]; assay type: functional, cell-based; settings: HGC-27, 24 h
MGC-803 [31] = assay: Induction of morphological changes in human MGC-803 cells assessed as cytomembrane foaming incubated for 36 hrs by Giemsa staining based microscopic analysis; assay type: functional, cell-based; settings: dose 2.5-20 µM
[32] = Cmax in Sprague-Dawley rat at 100 mg/kg, po measured up to 24 hrs by LC-MS/MS analysis; assay type: ADME, organism-based; parameters: dose 100 mg/kg, time < 24 hrs, route po; settings: in vivo
HGC-27 [33] = assay: Induction of cell cycle arrest in human HGC-27 cells assessed as downregulation of cyclin B1 expression incubated for 48 hrs by Western blot analysis; assay type: functional, cell-based; settings: dose 0.1-8 µM
HGC-27 [34] = assay: Induction of apoptosis in human HGC-27 cells assessed as upregulation in cleaved PARP expression at 0.1 to 1.6 uM incubated for 48 hrs by Western blot analysis; assay type: functional, cell-based; settings: dose 0.1-1.6 µM
HGC-27 [35] = assay: Induction of apoptosis in human HGC-27 cells assessed as late apoptotic cells at 0.4 uM incubated for 48 hrs by annexin V FITC/propidium iodide staining based flow cytometry (reference value: 5.14 %); assay type: functional
HGC-27 [36] = assay: In vivo induction of cell cycle arrest in human HGC-27 cells xenografted in BALB/c mouse assessed as decrease in CDK2 expression at 75 to 150 mg/kg, po bid administered for 19 days and measured by immunohistochemical analysis; assay type: functional, organism-based; settings: dose 75-150 mg/kg, time 19.0 day
[37] = Acute toxicity in Kunming mouse assessed as mouse survival at 1000 mg/kg, po measured after 14 days; assay type: organism-based; settings: in vivo, 336 h, time 14 day
[38] = Toxicity in BALB/c mouse xenografted with human HGC-27 cells assessed as red blood cell distribution width at 150 mg/kg, po bid for 19 days; assay type: organism-based; settings: in vivo, 456 h, time 19 day

In the case of `O=C(NCc1ccc(NC(=O)c2ccccc2N2CCCC2)cc1)OCc1cccnc1`, the Activity (HGC-27 [1]) is reported as “Active”, the Activity (HGC-27 [2]) is reported as “Active” and the inhibition (HGC-27 [3]) is reported as “Dde”. For the same molecule, the viability at 0.5 µM (HGC-27 [4]) was 79.1%, the inhibition (MGC-803 [5]) was “Dde” and the AUC(0-t) at 24 h [6] was 4720 ng·h/mL. For the same molecule, the Activity (HGC-27 [7]) was “Dde”, the Activity (HGC-27 [8]) was 12.1% and the Activity (MGC-803 [9]) was “Dde”. For the same molecule, the Activity (HGC-27 [10]) was 3.68%, the Activity (MGC-803 [11]) was “Active” and the Activity (HGC-27 [12]) was “Active”. The viability at 10 µM (MGC-803 [13]) was 59.4%, the Activity (MGC-803 [14]) was 2.47% and the viability at 5 µM (MGC-803 [15]) was 65%. For the same molecule, the half-life [16] was 1.56 h, the Activity (MGC-803 [17]) was 17% and the Activity (MGC-803 [18]) was 15.5%. For the same molecule, the Activity (MGC-803 [19]) was 3.27%, the Activity (HGC-27 [20]) was “Active” and the Activity (HGC-27 [21]) was “Dde”. The Activity (HGC-27 [22]) was 0.92%, the Tmax [23] was 0.5 h and the Activity (HGC-27 [24]) was “Dde”. For the same molecule, the Activity (HGC-27 [25]) was “Dde”, the MRT last at 24 h [26] was 1.88 h and the Activity (MGC-803 [27]) was 18.2%. The Activity (MGC-803 [28]) was 19.1%, the Activity (HGC-27 [29]) was “Active” and the IC50 (HGC-27 [30]) was 1.84 µM. The Activity (MGC-803 [31]) was “Active”, the Cmax [32] was 4090 ng/mL and the Activity (HGC-27 [33]) was “Active”.
For `O=C(NCc1ccc(NC(=O)c2cc(F)ccc2N2CCCC2)cc1)OCc1cccnc1`, the Activity (HGC-27 [1]) was “Active”, the Activity (HGC-27 [2]) was “Active” and the inhibition (HGC-27 [3]) was “Dde”. For the same molecule, the Activity (HGC-27 [34]) was “Active”, the inhibition (MGC-803 [5]) was “Dde” and the AUC(0-t) at 24 h [6] was 7310 ng·h/mL. The Activity (HGC-27 [7]) was “Dde”, the Activity (MGC-803 [9]) was “Dde” and the Activity (HGC-27 [35]) was 21.3%. For the same molecule, the Activity (HGC-27 [36]) was “Active”, the Activity (MGC-803 [11]) was “Active” and the Activity (HGC-27 [12]) was “Active”. It also gave a viability at 10 µM (MGC-803 [13]) of 82%, an Activity (MGC-803 [14]) of 5.22% and a viability at 5 µM (MGC-803 [15]) of 81.1%. For the same molecule, the Activity [37] was “Non-Toxic”, the half-life [16] was 2.5 h and the Activity (MGC-803 [17]) was 10.4%. It also gave an Activity [38] of 15.33%, an Activity (MGC-803 [18]) of 3.23% and an Activity (MGC-803 [19]) of 1.84%. The Activity (HGC-27 [20]) was “Active”, the Activity (HGC-27 [21]) was “Dde” and the Tmax [23] was 1.2 h. For the same molecule, the Activity (HGC-27 [24]) was “Dde”, the Activity (HGC-27 [25]) was “Dde” and the MRT last at 24 h [26] was 4.25 h. The Activity (MGC-803 [27]) was 8.86%, the Activity (MGC-803 [28]) was 7.31% and the Activity (HGC-27 [29]) was “Active”. For the same molecule, the IC50 (HGC-27 [30]) was 0.28 µM, the Activity (MGC-803 [31]) was “Active” and the Cmax [32] was 3980 ng/mL. For the same molecule, the Activity (HGC-27 [33]) was “Active”.
